Source: article PMC7352571, “New Anti-Cancer Strategy to Suppress Colorectal Cancer Growth Through Inhibition of ATG4B and Lysosome Function” (Cancers, 2020)

What was measured:
[1] = system: U87 cells; experiment: CCK-8 cell viability assay, U87; type: cell-based; conditions: Homo sapiens, U-87 MG; CCK-8 assay, 48 h
Experimental: (§1) Cells were seeded and incubated overnight in 96-well plates at a density of 5 × 10^3 cells/well. […] A total of 10 µL CCK-8 were added to each well for additional 1 h and cell viability was measured by CCK-8 assay. Absorbance was measured at 450 nm. The IC50 values were calculated by GraphPad Prism 7 (GraphPad Software Inc., San Diego, CA, USA).

[2] = system: MGC803 cells; experiment: CCK-8 cell viability assay, MGC803; type: cell-based; conditions: Homo sapiens, MGC-803; CCK-8 assay, 48 h
Experimental: as §1

[3] = system: lysosome acidity in HeLa cells; experiment: LysoTracker Red (LTR) assay, HeLa; type: cell-based; conditions: 6 h, 163N 5 or 10 µM, Rap 1 µM, E64D 25 µM plus pepstatin A 50 µM
Experimental: (§2) Figure 5 163N causes lysosome dysfunction. […] (C) HeLa cells were treated with or without 163N (10 µM) for 6 h, followed by immunostaining using cathepsin B and LAMP1 antibody. The colocalization of cathepsin B and LAMP1 was measured.
LTR assay: cells were incubated with LTR (25 nM) in HBSS medium at 37° for 30 min, and then fluorescence microscopy was used for detecting fluorescence intensity.

[4] = system: MRC-5 cells; experiment: CCK-8 cell viability assay, normal cells MRC-5; type: cell-based; conditions: at a higher concentration (40 µM), 48 h
Experimental: as §1
(§3) Figure S2. 163N could inhibit autophagy flux. (A) HeLa cells treated with different concentrations of
(§4) II/TUBA was calculated using ImageJ software.
(§5) was examined. The number of GFP-LC3B dots was quantified. Data are presented as mean ± SEM
(§6) was performed to assess cell viability. […]

[5] = system: L02 cells; experiment: CCK-8 cell viability assay, normal cells L02; type: cell-based; conditions: at a higher concentration (40 µM), 48 h
Experimental: as §1, §3, §4, §5, §6

[6] = system: GFP-LC3 A549 cells; experiment: GFP-LC3 dots in A549 cells stably expressing GFP-LC3; type: cell-based; conditions: 6 h at different concentrations or 10 µM over time course
[7] = system: SGC7901 cells; experiment: CCK-8 cell viability assay, SGC7901; type: cell-based; conditions: Homo sapiens, SGC-7901; CCK-8 assay, 48 h
Experimental: as §1

[8] = system: HCT116 cells; experiment: real-time cellular analysis (RTCA); type: cell-based, Human; conditions: 2 µM, wild type HCT116
Experimental: An E-Plate 16 (ACEA Biosciences, Hangzhou, China) was prepared with 50 µL of DMEM medium added to each well to do a background measurement in the xCELLigence instrument (ACEA Biosciences, China). 100 µL of passaged cell suspensions containing 2.5 × 10^3 cells were added to each well and then cells were settled on the base of the well for 30 min at room temperature. The plate was inserted into the RTCA system (housed within the incubator) and cell index (CI) values were assessed every 5 min over the following 72 h. After 24 h of cell seeding, the assay was paused and 2 µM 163N was added to each well. Then, the plate was placed in the station again and the analysis was restarted. After completing a total of 72 h of analysis, the data were analyzed with GraphPad 7.0 software.

[9] = system: lysosomal membrane permeabilization in HeLa cells; experiment: immunostaining, colocalization of cathepsin B and LAMP1; type: cell-based; conditions: 10 µM, 6 h
Experimental: as §2
Immunostaining assay was performed as described previously. Cells were fixed in 4% paraformaldehyde for 15–20 min followed by permeabilization with 0.1% Triton X-100 for another 15 min. Then, PBS containing 5% bovine serum albumin was used for blocking. Primary antibodies (1:150) was used at 4° for one night and then secondary antibodies (1:500) were applied at room temperature for 1 h. EVOS FL Auto (Life Technologies) was used to get the fluorescence images. At least three optical fields with at least 100 cells were analyzed for quantification.

[10] = system: KYSE150 cells; experiment: CCK-8 cell viability assay, KYSE150; type: cell-based; conditions: Homo sapiens, KYSE-150; CCK-8 assay, 48 h
Experimental: as §1

[11] = system: HCT116 cells; experiment: wound healing assay; type: cell-based, Human; conditions: 10 µM, 48 h
Experimental: Cells were seeded in 12-well plates. After the cells grew to confluence, wounds were made by sterile pipette tips. The cells were photographed at the beginning of wound formation. […] The distance of cell migration was calculated from three independent experiments.

[12] = system: ATG16L1 KO Hela cells; experiment: CCK-8 assay, ATG16L1 KO Hela cells; type: cell-based; conditions: Homo sapiens
Experimental: as §1
Figure S4. The identification of ATG4B knockout HCT116 cells. (A) The genomic DNA of HCT116 cells in the control group transfected with GFP-sgRNA and the experimental group transfected with ATG4B-sgRNA was used as a template for PCR, and the PCR products were used for sequencing. (B) Protein levels of ATG 4B and LC3B in the control and ATG4BKO cells.
Figure S5. 163N induces cell death through targeting autophagy. (A) Hela cells were treated with […]
performed to assess cell proliferation. ( B) Hela cells or ATG16L1 KO Hela cells were treated with […]

[13] = system: MDA-MB-231 cells; experiment: CCK-8 cell viability assay, MDA-MB-231; type: cell-based; conditions: Homo sapiens, CCK-8 assay, 48 h
Experimental: as §1

[14] = biological target: ATG4A (Homo sapiens, UniProt Q8WYN0); experiment: FRET-based assay for ATG4A activity
Sequence of ATG4A (Q8WYN0 whole entry, species assumed): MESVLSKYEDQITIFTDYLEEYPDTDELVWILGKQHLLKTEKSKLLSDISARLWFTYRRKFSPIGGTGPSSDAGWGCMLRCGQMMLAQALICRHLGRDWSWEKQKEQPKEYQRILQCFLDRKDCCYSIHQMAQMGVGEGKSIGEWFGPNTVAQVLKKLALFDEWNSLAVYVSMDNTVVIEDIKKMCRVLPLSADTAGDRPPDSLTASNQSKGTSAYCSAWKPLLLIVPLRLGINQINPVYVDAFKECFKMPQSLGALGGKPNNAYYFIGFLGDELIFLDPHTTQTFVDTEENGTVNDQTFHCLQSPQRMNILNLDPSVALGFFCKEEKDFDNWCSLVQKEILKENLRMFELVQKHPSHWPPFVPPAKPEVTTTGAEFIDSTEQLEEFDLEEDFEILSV
Experimental: A FRET-based assay for detecting ATG4B activity was carried out as described [45].

[15] = system: LC3-II in HeLa cells; experiment: western blot for LC3 conversion, HeLa; type: cell-based; conditions: 1, 5, 10, 20 µM for 6 h; 10 µM time course
Experimental: as §3, §4, §5, §6

[16] = system: SQSTM1 in HeLa cells; experiment: immunostaining of SQSTM1 dots; conditions: 10 µM, 6 h

## COc1ccc(Nc2cc(C)nc(Nc3ccc(-c4cc5ccccc5o4)cc3)n2)cc1 [Compound 163N]
[1]
  IC50: 10.6 µM
[2]
  IC50: 9.33 µM
[3]
  LTR red fluorescence / acidic vesicles: significant reduction in acidic vesicles
[4]
  cell viability of normal cells MRC-5: reduce the cell viability
[5]
  cell viability of normal cells L02: reduce the cell viability
[6]
  GFP-LC3 dots: accumulation of GFP-LC3 dots in dose- and time-dependent manners
[7]
  IC50: 21.2 µM
[8]
  cytotoxic effect in RTCA: significant cytotoxic effects
[9]
  lysosomal membrane permeabilization (cathepsin B/LAMP1 colocalization): did not produce lysosomal membrane permeabilization
[10]
  IC50: 13 µM
[11]
  migration of wild type HCT116 cells: significantly inhibited the migration
[12]
  IC50: 12.4 µM
[13]
  IC50: 9.99 µM
[14]
  IC50: 53.7 µM
[15]
  LC3-II level, HeLa: dose- and time-dependent accumulation of LC3-II
[16]
  degradation of autophagic substrate SQSTM1: significantly attenuated the degradation of the autophagic substrate SQSTM1
